Source: paper PMC12040169 (PLOS Biology, 2025)

Assay: in vitro
Conditions: human, hela cells, % viability

| Structure (SMILES) | viability at 28.5 h, 10 µM [%] |
| --- | --- |
| CC1CN(Cc2c(C(F)(F)F)[nH]c3ncccc23)CC(C)O1 (stereo not drawn) [CBK285344] | 88.5 |
| O=C(NCC(c1ccccc1)c1ccccc1)N1CCN(c2ccccc2)CC1 [CBK155197] | 89.8 |
| O=C(c1ccccc1)N1CCCC1c1n[nH]cc1-c1ccncc1 (stereo not drawn) [CBK283433] | 88.5 |
| Cc1nc(C)c(C(=O)NC2CCCNC2=O)s1 (stereo not drawn) [CBK281628] | 86.8 |
| COc1ccc(-c2cn3cccnc3n2)cc1NC(=O)c1ccccc1 [CBK287296] | 73.8 |
| CCCc1ccc(C(=O)N2CCC(C(=O)c3cccnc3)CC2)o1 [CBK285482] | 101 |
| Cn1c(S)nnc1-c1ccccc1O [CBK014577] | 111 |
| O=C(CN1C(=O)N2CCCN=C2c2ccc(Cl)cc21)NC1CC1 [CBK284388] | 89 |
| CC(C)(C)OC(=O)N1CCN(c2ccc(N)c3ccccc23)CC1 [CBK003162] | 88.3 |
| COc1ccc(-c2cc3cccnc3n2CC(=O)NC(C)(C)C)cc1 [CBK285381] | 115 |
| CC1CN(C(=S)Nc2ccc3ccccc3c2)CC(C)O1 (stereo not drawn) [CBK004993] | 102 |
| CCn1cncc1CN1CCCC(O)(c2ccc(F)cc2)CC1 (stereo not drawn) [CBK284838] | 90.6 |
| COc1ccc(C(=O)NCCc2nc3ccccc3[nH]2)cc1 [CBK261040] | 101 |
| Brc1cn2ccnc2c(NCCc2ccccn2)n1 [CBK066244] | 92.9 |
| Cc1cc(C)n2nc(C(=O)NCCCn3ccnc3C(C)C)nc2n1 [CBK307635] | 94 |
| N=C1NC(=O)/C(=C/c2cccc(OCCOc3ccc(C4CCCCC4)cc3)c2)S1 [CBK263956] | 87.6 |
| CCN(CC)C(=O)CNS(=O)(=O)Cc1ccccc1[N+](=O)[O-] [CBK034504] | 94.3 |
| COc1ccc(/C=C(/NC(=O)c2cccc([N+](=O)[O-])c2)C(=O)O)cc1OC [CBK263362] | 97.1 |
| Nc1c(Cc2c(Cl)cccc2Cl)c(=O)n2n1CCCC2 [CBK089337] | 95 |
| c1ccc(Cn2cc(-c3nccnc3OC3CCCCC3)cn2)cc1 [CBK107092] | 93 |
| CCn1c(CC2CCN(C(=O)CCN3CCCCO3)CC2)nn(C)c1=O [CBK307217] | 95.4 |
| N#Cc1ccc(C(=O)Nc2nnc(-c3ccccn3)o2)cc1 [CBK287428] | 100 |
| CNC(=O)C1(Cc2ccccc2-c2cccs2)CCN(C(=O)COc2ccccc2)CC1 [CBK285684] | 118 |

| Structure (SMILES) | viability at 28.5 h, 10 µM [%] |
| --- | --- |
| Cc1ccc(-c2nn3c(C)nnc3c3ccccc23)cc1S(N)(=O)=O [CBK268342] | 97.3 |
| CCN(CC(=O)NCc1ccccn1)S(=O)(=O)c1ccccc1 [CBK269546] | 90.2 |
| O=C1N/C(=N/N=C/c2ccc(O)cc2)SC1Cc1ccccc1[N+](=O)[O-] (stereo not drawn) [CBK261684] | 91.9 |
| CC(=O)Nc1ccc2c(c1)CCC(C)C2=O (stereo not drawn) [CBK003474] | 78.4 |
| COc1ccc([C@@]23CC[C@@H](NC(=O)Nc4cccc(Br)n4)C[C@@H]2N(C)CC3)cc1OC [CBK045703] | 85.4 |
| Cc1ccc(NC(=O)N(CCC#N)C2CCCCC2)cc1 [CBK156381] | 106 |
| COc1ccc(F)c(CN2CC3CCCN3C[C@@H]2C)c1 (stereo partly drawn) [CBK284549] | 86.9 |
| O=C(Nc1ccc(Cl)cc1)NC1(C(=O)NCc2ccncc2)CCCCC1 [CBK174259] | 100 |
| CN(C)CC1CCCN(C(=O)[C@@H]2C[C@@H]3C=C[C@H]2C3)C1 (stereo partly drawn) [CBK282063] | 98 |
| COc1cc(OC)nc(CC(=O)O)n1 [CBK103537] | 104 |
| O=C1COc2ccccc2CCCC[C@@H]2CN(C(=O)CCN3CCCC3=O)CC[C@H]2N1 [CBK292044] | 91.8 |
| O=C(Cc1ccccc1)Nc1ncc(Cc2ccccc2)s1 [CBK287322] | 95.6 |
| CCN1CCN(CCCOc2ccccc2Cc2ccccc2)CC1 [CBK267379G] | 95 |
| COCc1nnc(Sc2nccc(C(F)(F)F)n2)s1 [CBK093790] | 99.5 |
| Cc1ccc(N2C(=O)/C(=C/c3ccc(O)c(O)c3)SC2=S)cc1C [CBK262756] | 76.8 |
| Cn1nnc2cc(NCC34CC3CN(C(=O)OC(C)(C)C)C4)ccc21 (stereo not drawn) [CBK304758] | 92.7 |
| O=C1CN(C(=O)Nc2ccc(Cl)cc2)CCN1 [CBK155861] | 81.3 |
| CCOc1ccc(-c2nc(CC(=O)O)cs2)cc1 [CBK295300] | 87.7 |
| CN1CCC(N2CCN(C(=O)c3ccc4nc[nH]c4c3)CC2)CC1 [CBK149099] | 94.7 |
| Cc1cccn2cc(C(=O)N(C)CCn3ccnc3C)nc12 [CBK281735] | 91.7 |
| Cc1cc(C(=O)N2C3CCC2CC(O)(c2ccnn2C)C3)sc1C (stereo not drawn) [CBK284518] | 103 |
| COCCCN(Cc1ccccn1)Cc1ccc(F)cc1F [CBK282974] | 103 |
| CN1CCC(N2CCN(C(=O)NCCCN3CCCC3=O)CC2)CC1 [CBK156105] | 102 |

| Structure (SMILES) | viability at 28.5 h, 10 µM [%] |
| --- | --- |
| CC1CCC(C(=O)Nc2ccc(C(=O)O)cc2)CC1 (stereo not drawn) [CBK287234] | 94.8 |
| COc1ccc(S(=O)(=O)N2CCOCC2)cc1C(=O)N1CCCC(C)C1 (stereo not drawn) [CBK305011] | 110 |
| O=C(NCc1ccccc1OC1CCNC1)c1ccccn1 (stereo not drawn) [CBK029464T] | 91.6 |
| O=C1COc2ccccc2C/C=C/CC2(CCN(Cc3cncnc3)CC2)CN1 [CBK292130] | 112 |
| Clc1ccccc1-c1nnc(Cn2c3ccc(Br)cc3c3nc4ccccc4nc32)o1 [CBK269091] | 88.5 |
| COc1ccc(C(NC(=O)C2CCN(S(C)(=O)=O)CC2)c2ccccc2C)cn1 (stereo not drawn) [CBK059738] | 104 |
| COc1ccc(Br)cc1S(=O)(=O)Nc1c(C(=O)Nc2ccc(F)cc2)[nH]c2ccccc12 [CBK050095] | 88.2 |
| O=c1nc(NC2CCCCC2)sc2ncccc12 [CBK067024T] | 92.6 |
| O=C(O)C1=CC(c2c[nH]nc2-c2ccc(F)cc2)n2ncnc2N1 (stereo not drawn) [CBK286906] | 86.2 |
| CN1CCC(N(C)C(=O)Nc2ccc3c(c2)OCCO3)C1 (stereo not drawn) [CBK156008] | 116 |
| O=c1cc(O)c2c(=O)[nH]c(=O)n(-c3ccccc3)c2[nH]1 [CBK287907] | 88.2 |
| CC(=O)Nc1cccc(NC(=O)c2cc(-c3ccncc3)nc3ccc(Cl)cc23)c1 [CBK267773] | 92.6 |
| COc1cc(/C=C(/C#N)c2nc3ccccc3[nH]2)ccc1OCc1ccc(C(=O)O)o1 [CBK267839] | 90.7 |
| CC1=NN(c2ccc([N+](=O)[O-])cc2)C(=O)/C1=C\NCCN1CCN(C(=O)c2ccc(Br)cc2)CC1 [CBK261788] | 110 |
| N#CCCCN1CCC2(CC1)CN(CC(N)=O)c1ccccc12 [CBK137024] | 97.7 |
| COc1c(Br)cc(Br)cc1/C=C1/SC(=N)NC1=O [CBK119298] | 94.4 |
| c1ccc(CSc2ccc3nnc(-c4ccncc4)n3n2)cc1 [CBK287625] | 94.4 |
| CCCNC(=O)CN1C(=O)N2CCCN=C2c2ccc(Cl)cc21 [CBK284389] | 82.8 |
| COc1ccc(C(=O)N2CCC3(CCN(C(=O)CC4CCCCC4)C3)C2)cc1OC (stereo not drawn) [CBK131770] | 94.7 |
| CC(=O)c1ccc(-c2nccnc2N[C@@H](CO)C(C)C)s1 [CBK037404] | 100 |
| COc1cc(CNc2nc(O)cc(C(F)(F)F)n2)cc(OC)c1OC [CBK002390] | 90.3 |
| c1cc(-c2cnc(N3CCOCC3)c3nccn23)c2cccnc2c1 [CBK091270] | 93.6 |
| Cc1cnc2[nH]c(C3CC3)c(CN3CC(C)OC(C)C3)c2c1 (stereo not drawn) [CBK284741] | 91.8 |

| Structure (SMILES) | viability at 28.5 h, 10 µM [%] |
| --- | --- |
| Cc1ccncc1C(=O)NCc1ccccc1 [CBK200193] | 110 |
| O=C1NCCCC12CCN(Cc1cccc3ncccc13)CC2 [CBK285033] | 101 |
| Cc1cc(Cl)ccc1NC(=S)NCCc1ccc(S(N)(=O)=O)cc1 [CBK264888] | 88.5 |
| CC(C)c1ccc(N2C(=O)N[C@@H]3CCN(C(=O)c4cccs4)[C@@H]3C2=O)cc1 [CBK289286] | 90.7 |
| COc1ccc(C(C)C)cc1-c1ccnc2[nH]c(=O)ccc12 [CBK073735] | 102 |
| Cc1nn(CCNC(=O)C2CC3C=CC2C32CC2)c(C)c1Cl (stereo not drawn) [CBK281429] | 90.8 |
| COc1ccc([N+](=O)[O-])cc1-c1ccc(-c2nc(-c3ccccc3)c(-c3ccccc3)[nH]2)o1 [CBK262497] | 77.3 |
| Cc1cc(NC(=O)NC2CCSc3ccccc32)no1 (stereo not drawn) [CBK259296] | 74.8 |
| FC(F)(F)c1cccc(-c2cn3ccnc3c(NCc3ccncc3)n2)c1 [CBK066632] | 97.8 |
| Cc1ccc(-c2n[nH]c(=S)n2CC(=O)N(C)Cc2ccc(N3CCOCC3)cc2)cc1 [CBK297908] | 85.9 |
| OC1CCC(Nc2cncc(-c3cccc(Cl)c3)n2)CC1 (stereo not drawn) [CBK066031] | 91 |
| O=C(CCn1c(C(F)(F)F)cc2cccnc21)NCc1cccnc1 [CBK284865] | 106 |
| Cc1nonc1CC(=O)N[C@H]1C2CCCCC2[C@@H]1c1ccccc1 (stereo partly drawn) [CBK285126] | 102 |
| Cc1cc(C)n(C(C)CNC(=O)C(C)Cn2cccn2)n1 (stereo not drawn) [CBK281639] | 87.6 |
| COc1ccc(CCC(=O)N2CCC(N(C)Cc3ccc(-c4ccc(S(C)(=O)=O)cc4)nc3)CC2)cc1Cl [CBK164102T] | 86.6 |
| O=C(Cc1ccc(F)cc1)Nc1cccc(-c2noc(-c3ccc(F)cc3)n2)c1 [CBK299821] | 89 |
| CN1C(=O)C(C)(C)Oc2ccc(C(O)c3ccco3)cc21 (stereo not drawn) [CBK284469] | 89.8 |
| CCOc1ccc(CCNC(=O)c2cnc(Nc3ccccc3OC)c3ccccc23)cc1OCC [CBK291185] | 94.5 |
| COCC(=O)NC(Cc1ccsc1)c1nc(C)cs1 (stereo not drawn) [CBK282804] | 99.5 |
| CC(=O)NCc1cccc(-c2cc(COc3ccc4c(c3)OCO4)cnc2-c2ccc(Cl)cc2)c1 [CBK164106A] | 105 |
| CCCCN(C)c1c(C)nc2c(OCc3ccc(S(=O)(=O)N(C)C)cc3)cccn12 [CBK147189] | 96.2 |
